# Results taken from patent US11396493B2, “Amorphous pyrrolidine derivative as PPAR agonist and preparation method thereof” (GUANGDONG RAYNOVENT BIOTECH CO., LTD., priority 2017, dated 2022).
# Assays:
# [1] = target: T1, PPAR Alpha (Homo sapiens, UniProt Q07869); assay: PathHunter NHR protein interaction test, agonist mode, PPAR Alpha; format: cell-based
# T1 sequence (Q07869 1-468): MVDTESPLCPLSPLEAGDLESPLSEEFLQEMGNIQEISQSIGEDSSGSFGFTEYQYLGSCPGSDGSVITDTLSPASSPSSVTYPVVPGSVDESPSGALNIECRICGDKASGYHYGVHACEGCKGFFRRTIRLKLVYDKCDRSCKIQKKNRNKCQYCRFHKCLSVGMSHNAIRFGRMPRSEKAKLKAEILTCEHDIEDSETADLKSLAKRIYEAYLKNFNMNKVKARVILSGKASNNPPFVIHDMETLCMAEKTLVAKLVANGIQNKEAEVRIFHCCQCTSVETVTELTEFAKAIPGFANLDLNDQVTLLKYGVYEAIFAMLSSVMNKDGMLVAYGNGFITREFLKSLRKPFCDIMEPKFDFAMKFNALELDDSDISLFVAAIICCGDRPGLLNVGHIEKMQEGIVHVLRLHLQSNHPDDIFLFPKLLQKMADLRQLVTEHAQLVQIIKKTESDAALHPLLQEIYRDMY
# Source text: (§1) Principles of in Vitro Test of PPAR Agonist Activity
# (§2) Nuclear Hormone Receptor (NHR) Test
# (§3) PathHunter's NHR protein interaction and nuclear transfer test are used to detect the activation ability of nuclear hormone receptor in a uniform, non-imaging experiment. This technology is called as enzyme fragment complementation […], and is developed by DiscoverX.
# (§4) NHR protein test is based on the detection of the protein-protein interaction between a standard length of NHR protein in an activated state and a nuclear fusion protein containing a steroid receptor co-activating peptide (SRCP) region and one or more standard LXXLL acting sequences.
# (§5) NHR is labeled on the ProLink™ component of an EFC test system, and the SRCP region and the enzyme receptor component (EA) are fused and expressed in the nucleus. When bound to the ligand, the NHR will transfer to the nucleus and obtain the SRCP region in which a complementary effect is produced, thereby generating an equivalent amount of activated-galactosidase (-Gal), accompanied by the generation of chemical light signals. The benefits associated with this pathway include reduced incubation time of the compound, direct test of an NHR target, use of human NHR sequences with a standard length, and selection of some new classes of compounds based on the disruption of protein-protein interactions.
# (§6) The NHR NT test detected the transfer of an NHR between the cytoplasmic and nuclear compartments. The receptor was labeled on the ProLink™ component of the EFC test system, while the EA and nuclear sequence were fused, thereby limiting the expression of EA on the nucleus. Nucleus transfer leaded to the complementary effect with EA, thereby generating one equivalent of activated galactosidase (-Gal), accompanied by the generation of chemical light signals.
# (§7) 1. PathHunter NHR cell strains were spread from a frozen stock in accordance with standard operations.
# (§8) 2. Cells were seeded onto a 384-well white cell plate of 20 uL/well, and incubated at 37° C. for an appropriate time prior to test. The culture medium contained activated carbon dextran with filtered serum to reduce the level of hormone expression.
# (§9) Experiments of Agonist Mode:
# (§10) 1. As for the measurement of an agonist activity, it is required to incubate the cells with the compound to induce a response.
# 2. […]
# (§11) 2. The chemiluminescence signals generated by the microplate were to be detected by a PerkinElmer Envision instrument.
# (§12) 1. The activity of the compound was analyzed by CIBS data analysis software (ChemInnovation, CA).
# (§13) 2. For experiments of agonist mode, the percentage activity is calculated by the following formula: % activity=100%×(the mean RLU of the compound to be tested−the mean background RLU of the medium)/(the mean of maximum control of the ligand−the mean background RLU of the medium)
# [2] = target: T2, PPAR Delta (Homo sapiens, UniProt Q03181); assay: PathHunter NHR protein interaction test, agonist mode, PPAR Delta; format: cell-based
# T2 sequence (Q03181 1-441): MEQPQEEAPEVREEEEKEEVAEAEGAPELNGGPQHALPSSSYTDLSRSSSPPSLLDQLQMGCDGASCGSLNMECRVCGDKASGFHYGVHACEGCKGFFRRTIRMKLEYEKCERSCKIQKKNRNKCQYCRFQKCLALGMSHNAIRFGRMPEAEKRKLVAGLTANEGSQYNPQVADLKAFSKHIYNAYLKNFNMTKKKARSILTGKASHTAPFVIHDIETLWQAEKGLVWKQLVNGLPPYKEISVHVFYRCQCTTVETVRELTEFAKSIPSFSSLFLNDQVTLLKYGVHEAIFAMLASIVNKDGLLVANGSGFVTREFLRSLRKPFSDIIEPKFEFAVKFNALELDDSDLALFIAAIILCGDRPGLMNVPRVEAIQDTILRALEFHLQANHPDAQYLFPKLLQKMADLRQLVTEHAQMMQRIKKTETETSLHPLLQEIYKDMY
# Source text: as §1, §2, §3, §4, §5, §6, §7, §8, §9, §10
# 2. […]
# as §11, §12, §13
# [3] = target: T3, PPAR Gamma (Homo sapiens, UniProt P37231); assay: PathHunter NHR protein interaction test, agonist mode, PPAR Gamma; format: cell-based
# T3 sequence (P37231 1-505): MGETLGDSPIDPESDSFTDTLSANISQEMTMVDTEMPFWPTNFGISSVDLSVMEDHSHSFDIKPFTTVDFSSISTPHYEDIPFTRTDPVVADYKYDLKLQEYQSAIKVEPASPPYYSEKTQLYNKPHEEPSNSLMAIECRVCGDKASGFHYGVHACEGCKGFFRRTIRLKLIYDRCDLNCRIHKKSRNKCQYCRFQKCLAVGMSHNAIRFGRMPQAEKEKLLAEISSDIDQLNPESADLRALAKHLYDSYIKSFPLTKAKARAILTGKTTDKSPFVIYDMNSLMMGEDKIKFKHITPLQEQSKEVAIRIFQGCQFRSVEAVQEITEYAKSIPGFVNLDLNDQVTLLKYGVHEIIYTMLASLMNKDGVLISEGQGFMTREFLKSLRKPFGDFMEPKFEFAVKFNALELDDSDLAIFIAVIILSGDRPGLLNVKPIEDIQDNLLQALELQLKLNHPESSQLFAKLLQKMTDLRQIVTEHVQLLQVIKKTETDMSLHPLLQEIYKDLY
# Source text: as §1, §2, §3, §4, §5
# The NHR NT test detected the transfer of an NHR between the cytoplasmic and nuclear compartments. […]
# as §11, §12, §13
# [4] = system: CCl4-induced C57BL/6 mouse acute liver injury; assay: CCl4-induced C57BL/6 mouse acute liver injury experiment; format: in vivo; settings: no data shown
# [5] = system: MCD diet-induced db/db mouse NASH; assay: MCD diet-induced db/db mouse NASH model; format: in vivo; settings: no data shown
smiles,measurement,setting,value
CSc1ccc(C(=O)[C@@H]2CN(C(=O)Oc3ccccc3)C[C@H]2Cc2cc(C)c(OC(C)(C)C(=O)O)c(C)c2)cc1 [Compound of formula (I)],EC50,[1]; agonist mode,< 0.1 µM
same,activation effect on PPAR Alpha receptor,[1]; summary of Table 5,significant activation effect
same,EC50,[2]; agonist mode,< 0.1 µM
same,activation effect on PPAR Delta receptor,[2]; summary of Table 5,significant activation effect
same,EC50,[3]; agonist mode,> 0.25 µM
same,activation effect on PPAR Gamma receptor,[3]; summary of Table 5,selective activation effect
same,effect on liver injury,[4],significantly improving effect
same,effect on NAS Score,[5],significantly improving effect
same,effect on liver fibrosis,[5],significantly improving effect
